Data taken from the supplement of paper PMC7394473.

Key:
Conditions in all cases: 72 h
[1] = tested on: U2OS; assay: GRmin (fitted minimal GR value at highest effect) (GR value (dimensionless)); higher = less efficacious
Method: (§1)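 U2OS cells treated with full dose titrations of drug; live and dead cells counted by STACK microscopy (mKate2 nuclei, SYTOX Green) at 72 h, biological triplicates. GR and FV dose responses were fitted with 4-parameter logistic models (GR lower bound -1). GRADE (0-100) is the rescaled angle of a linear fit of FV versus GR at doses with GR >= 0, giving the percentage of the response due to cell death.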

[2] = tested on: U2OS; assay: GR50 (concentration giving GR = 0.5)
Method: as §1

[3] = tested on: U2OS; assay: fractional viability (live cells / total cells); higher = less cell death
Method: (§2)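 U2OS::Nuc-mKate2 cells seeded in 96-well plates and treated with eight- to ten-point half-log or log dilutions of drug in the presence of 50 nM SYTOX Green. Live (mKate2+) and dead (SYTOX+) cells were counted by IncuCyte STACK live-cell microscopy at 72 h; biological triplicates. GR is the normalised growth-rate inhibition value (Hafner 2016; 1 = untreated growth, <0 = population shrinking). FV is live/(live+dead) cells, not normalised.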

[4] = tested on: U2OS; assay: normalized growth rate inhibition value (GR) relative to untreated cells (GR value (dimensionless, 1 = untreated growth)); higher = less growth inhibition
Method: as §2

[5] = tested on: U2OS; assay: FV IC50 (concentration giving fractional viability 0.5); higher = less potent killing
Method: as §1

[6] = tested on: U2OS; assay: drug GRADE (percent of response due to cell death) (% (0-100)); higher = more death-driven response
Method: as §1

SMILES | GRmin [1] | GR50 [2] [µM] | fractional viability ([3]; 0.00100578 µM) | fractional viability ([3]; 0.00317827 µM) | fractional viability ([3]; 0.0100433 µM) | fractional viability ([3]; 0.0317369 µM) | fractional viability ([3]; 0.100289 µM) | fractional viability ([3]; 0.316912 µM) | fractional viability ([3]; 1.00144 µM) | fractional viability ([3]; 3.16456 µM) | fractional viability ([3]; 10 µM) | normalized growth rate inhibition value ([4]; 0.00100578 µM) | normalized growth rate inhibition value ([4]; 0.00317827 µM) | normalized growth rate inhibition value ([4]; 0.0100433 µM) | normalized growth rate inhibition value ([4]; 0.0317369 µM) | normalized growth rate inhibition value ([4]; 0.100289 µM) | normalized growth rate inhibition value ([4]; 0.316912 µM) | normalized growth rate inhibition value ([4]; 1.00144 µM) | normalized growth rate inhibition value ([4]; 3.16456 µM) | normalized growth rate inhibition value ([4]; 10 µM) | FV IC50 [5] [µM] | drug GRADE [6] | fractional viability ([3]; 0.01 µM) | fractional viability ([3]; 0.0316 µM) | fractional viability ([3]; 0.1 µM) | fractional viability ([3]; 0.316 µM) | fractional viability ([3]; 1 µM) | fractional viability ([3]; 3.16 µM) | fractional viability ([3]; 31.6 µM) | normalized growth rate inhibition value ([4]; 0.01 µM) | normalized growth rate inhibition value ([4]; 0.0316 µM) | normalized growth rate inhibition value ([4]; 0.1 µM) | normalized growth rate inhibition value ([4]; 0.316 µM) | normalized growth rate inhibition value ([4]; 1 µM) | normalized growth rate inhibition value ([4]; 3.16 µM) | normalized growth rate inhibition value ([4]; 31.6 µM)
Nc1cc(C(F)(F)F)c(-c2cc(N3CCOCC3)nc(N3CCOCC3)n2)cn1 [Buparlisib] | -0.554 | 0.439 | 0.986 | 0.984 | 0.986 | 0.986 | 0.985 | 0.976 | 0.868 | 0.558 | 0.404 | 0.914 | 0.956 | 0.959 | 0.899 | 0.77 | 0.704 | 0.0802 | -0.224 | -0.493 | 4.1 | 15.2 | – | – | – | – | – | – | – | – | – | – | – | – | – | –
CC(C)[C@@H]1NC(=O)[C@H](C)OC(=O)[C@@H](C(C)C)NC(=O)[C@@H](C(C)C)OC(=O)[C@H](C(C)C)NC(=O)[C@H](C)OC(=O)[C@@H](C(C)C)NC(=O)[C@@H](C(C)C)OC(=O)[C@H](C(C)C)NC(=O)[C@H](C)OC(=O)[C@@H](C(C)C)NC(=O)[C@@H](C(C)C)OC1=O [Valinomycin] | -0.0918 | 0.0108 | 0.993 | 0.991 | 0.874 | 0.933 | 0.685 | 0.737 | 0.675 | 0.553 | 0.384 | 1.02 | 0.986 | 0.171 | 0.472 | -0.0547 | 0.0438 | -0.0358 | -0.0823 | -0.225 | 4.06 | 34.4 | – | – | – | – | – | – | – | – | – | – | – | – | – | –
O=C(/C=C/c1cccc(S(=O)(=O)Nc2ccccc2)c1)NO [Belinostat] | -0.733 | 0.332 | – | – | – | – | – | – | – | – | 0.0497 | – | – | – | – | – | – | – | – | -0.646 | 0.93 | 63.3 | 0.969 | 0.972 | 0.947 | 0.878 | 0.466 | 0.096 | 0.0293 | 0.939 | 0.975 | 0.836 | 0.498 | -0.0168 | -0.527 | -0.72
Nc1ccccc1NC(=O)c1ccc(CNC(=O)OCc2cccnc2)cc1 [Entinostat] | -0.906 | 2.84 | – | – | – | – | – | – | – | – | 0.201 | – | – | – | – | – | – | – | – | -0.304 | 5.8 | 42.5 | 0.979 | 0.97 | 0.973 | 0.964 | 0.933 | 0.814 | 0.0216 | 0.972 | 0.969 | 0.929 | 0.883 | 0.741 | 0.504 | -0.726
CC(C)Oc1ccc(-c2ccccc2)cc1-n1c(CN2CCN(C(=O)COc3ccc(Cl)cc3)CC2)nc2ccccc2c1=O [Erastin 2] | -0.774 | 0.231 | – | – | – | – | – | – | – | – | 0.0609 | – | – | – | – | – | – | – | – | -0.627 | 0.659 | 24.1 | 0.97 | 0.973 | 0.952 | 0.886 | 0.233 | 0.0768 | 0.0186 | 0.949 | 0.863 | 0.703 | 0.419 | -0.133 | -0.515 | -0.776
COc1cc2nccc(Oc3ccc(NC(=O)Nc4cc(C)on4)c(Cl)c3)c2cc1OC [Tivozanib] | -0.878 | 3.87 | – | – | – | – | – | – | – | – | 0.229 | – | – | – | – | – | – | – | – | -0.421 | 7.34 | 7.57 | 0.977 | 0.982 | 0.98 | 0.977 | 0.977 | 0.949 | 0.0183 | 0.857 | 1.17 | 1.05 | 1.03 | 0.812 | 0.681 | -0.823
COc1cccc2c1C(=O)c1c(O)c3c(c(O)c1C2=O)C[C@@](O)(C(=O)CO)C[C@@H]3O[C@H]1C[C@H](N)[C@H](O)[C@H](C)O1 [Doxorubicin] | -0.576 | 0.0332 | 0.987 | 0.99 | 0.989 | 0.971 | 0.967 | 0.978 | 0.851 | 0.113 | 0 | 0.879 | 1.06 | 0.832 | 0.368 | 0.0816 | 0.0197 | -0.0749 | -0.501 | -1 | 2.59 | 3.78 | – | – | – | – | – | – | – | – | – | – | – | – | – | –
CC(=O)O[C@@]12CO[C@@H]1C[C@H](O)[C@@]1(C)C(=O)[C@H](O)C3=C(C)[C@@H](OC(=O)[C@H](O)[C@@H](NC(=O)OC(C)(C)C)c4ccccc4)C[C@@](O)([C@@H](OC(=O)c4ccccc4)[C@H]21)C3(C)C [Docetaxel] | -0.193 | 0.000853 | 0.707 | 0.588 | 0.41 | 0.413 | 0.323 | 0.351 | 0.252 | 0.238 | 0.255 | 0.339 | 0.223 | 0.0565 | -0.0266 | -0.14 | -0.174 | -0.245 | -0.251 | -0.164 | 0.00477 | 69.6 | – | – | – | – | – | – | – | – | – | – | – | – | – | –
